According to patent US20200405752A1, “ANTITUMOR AGENT, ANTITUMOR EFFECT ENHANCER, AND ANTITUMOR KIT” (FUJIFILM Corporation, priority 2018, published 2020):

Columns and labels:
[1] = system: human cholangiocarcinoma-derived cell line HuCC-T1; assay: Cell viability (CellTiter Glo) of HuCC-T1 in combination with cisplatin; format: cell-based; details: for viability at 0.0015 µM / viability at 0.0046 µM / viability at 0.0137 µM / viability at 0.0412 µM / viability at 0.1235 µM / viability at 0.3704 µM / viability at 1.1111 µM / viability at 3.3333 µM / viability at 10 µM / IC50: Homo sapiens; for viability at 0.0015 µM / viability at 0.0046 µM / viability at 0.0137 µM / viability at 0.0412 µM / viability at 0.1235 µM / viability at 0.3704 µM / viability at 1.1111 µM / viability at 3.3333 µM / viability at 10 µM: HuCCT-1, 72 h, with cisplatin 10 μmol/L, 3 days; for viability at 0.0015 µM: test substance 1.5 nM; for viability at 0.0046 µM: test substance 4.6 nM; for viability at 0.0137 µM: test substance 13.7 nM; for viability at 0.0412 µM: test substance 41.2 nM; for viability at 0.1235 µM: test substance 123.5 nM; for viability at 0.3704 µM: test substance 370.4 nM; for viability at 1.1111 µM: test substance 1111.1 nM; for viability at 3.3333 µM: test substance 3333.3 nM; for viability at 10 µM: test substance 10000.0 nM; for IC50: HuCCT-1, used in combination with cisplatin (10 μmol/L, Table 8); for CI: combination with cisplatin
Description: (§1) On the combinational effect of the embodiment of the invention, the results of evaluation using a combination index (CI) which is a quantitative index of the combinational effect are shown. The CI can be calculated by the following equation according to Cancer Research, 2010, Vol. 70, pp. 440 to 446.
(§2) That is, in a case where the drugs to be used in combination are drug 1 and drug 2, the CI at a certain drug concentration is
(§3) CI={(cell viability in case of using drug 1 and drug 2 in combination)/100}/{[(cell viability in case of using drug 1)/100]×[(cell viability in case of using drug 2)/100]}
Evaluation of antitumor activity against human cholangiocarcinoma-derived cell line HuCC-T1 in combination with cisplatin
Furthermore, the antitumor activity against the human cholangiocarcinoma-derived cell line HuCC-T1 in combination with cisplatin was evaluated in the same manner as in Test Example 1.
(§4) Gemcitabine, cisplatin, and methanesulfonate of Compound A were used as test substances.
Gemcitabine hydrochloride (manufactured by Plantex Co., Ltd.) dissolved in DMSO was used as gemcitabine. Cisplatin (Cat. #039-20091, manufactured by Wako Pure Chemical Industries, Ltd.) dissolved in serum-free RPMI-1640 medium (Cat. #11875-119, manufactured by Thermo Fisher Scientific Inc.) was used as cisplatin.
Human cholangiocarcinoma cell line HuCC-T1 cells were subcultured in RPMI-1640 medium supplemented with 10% serum (Cat. #10437-028, manufactured by Thermo Fisher Scientific Inc.). During this test, all cell cultures were carried out in a CO2 incubator (set to 37° C. and 5% CO2, saturated with water vapor). The culture was diluted with a 10% serum-supplemented medium to a cell density of 15000 cells/well/100 μL and the cells were seeded on a 96-well plate. On the next day, the culture supernatant of each well was discarded, followed by washing twice with 150 μL of serum-free medium, and 100 μL of serum-free medium was added thereto, followed by culturing for 3 days.
The methanesulfonate of Compound A and gemcitabine were dissolved in DMSO to prepare […] DMSO solutions thereof. The thus-prepared DMSO solutions were diluted sequentially with DMSO to prepare DMSO solutions having a final treatment concentration of 1000-fold dilution. Cisplatin was dissolved in serum-free medium to prepare a cisplatin solution 60 μmol/L. The DMSO diluted solutions of Compound A and gemcitabine were diluted with the cisplatin solution (60 μmol/L) to prepare treatment liquids having a final treatment concentration of 6-fold dilution. Compound A and gemcitabine were used with a maximum concentration of 10 μmol/L at a common ratio of 1/3 and 9 concentrations in combination with cisplatin.
(§5) 20 μL of Compound A or gemcitabine diluted with the cisplatin solution (60 μmol/L) was added to each well. In addition, a group in which only a solvent containing no drug was added to wells in which cells were seeded (positive control), and a group in which only a solvent containing no drug was added to wells containing only a medium (negative control) were provided. All groups were set to n=3 well.
(§6) The cells were cultured for 3 days after the addition of the drug, and the cell viability was evaluated using a CellTiter Glo (registered trademark) Reagent (Cat. #G7570, manufactured by Promega Corporation) with the intracellular ATP level as an index. The concentration that inhibits cell viability by 50% (IC50 value) was calculated using XLFit software Ver.3 (registered trademark, manufactured by CTC Laboratory Systems Corporation).
(§7) The cell viability of each well was determined with the luminescence signal level of the negative control being 0% cell viability and the luminescence signal level of the positive control being 100% cell viability. The average value and standard deviation of the cell viability of each treatment group were calculated to prepare Table 8.

[2] = system: human breast cancer cell line HCC1954 (spheroid culture); assay: Cell viability (CellTiter Glo) of HCC1954 in spheroid culture in combination with cisplatin; format: cell-based; details: for CI / IC50: HCC1954 spheroid culture; for CI: combination with cisplatin; for viability at 0.001 µM / viability at 0.003 µM / viability at 0.01 µM / viability at 0.03 µM / viability at 0.1 µM / viability at 0.3 µM / viability at 1 µM / viability at 3 µM / viability at 10 µM / IC50: Homo sapiens; for viability at 0.001 µM / viability at 0.003 µM / viability at 0.01 µM / viability at 0.03 µM / viability at 0.1 µM / viability at 0.3 µM / viability at 1 µM / viability at 3 µM / viability at 10 µM: 72 h, HCC1954 spheroid, with cisplatin 10 μmol/L, 3 days; for viability at 0.001 µM: test substance 1.0 nM; for viability at 0.003 µM: test substance 3.0 nM; for viability at 0.01 µM: test substance 10.0 nM; for viability at 0.03 µM: test substance 30.0 nM; for viability at 0.1 µM: test substance 100.0 nM; for viability at 0.3 µM: test substance 300.0 nM; for viability at 1 µM: test substance 1000.0 nM; for viability at 3 µM: test substance 3000.0 nM; for viability at 10 µM: test substance 10000.0 nM; for IC50: in combination with cisplatin (10 μmol/L)
Description: as §1, §2, §3
Evaluation of Antitumor Activity Against Breast Cancer-Derived Cell Line HCC1954 by Combined Use of Cisplatin in Spheroid Culture
as §4
Gemcitabine hydrochloride (manufactured by Plantex Co., Ltd.) dissolved in dimethyl sulfoxide (DMSO) was used as gemcitabine. Cisplatin (Cat. #039-20091, manufactured by Wako Pure Chemical Industries, Ltd.) dissolved in DMSO was used as cisplatin.
The human breast cancer cell line HCC1954 cells were subcultured in RPMI-1640 medium supplemented with 10% serum (Cat. #10437-028, manufactured by Thermo Fisher Scientific Inc.). During this test, all cell cultures were carried out in a CO2 incubator (set to 37° C. and 5% CO2, saturated with water vapor). The culture was diluted with 10% serum-supplemented medium to a cell density of 5000 cells/well/100 μL, and seeded on an Ultra-Low Attachment 96-well plate (Cat. #7007, manufactured by Corning Incorporated). The cells were cultured for 4 days to form spheroids.
The methanesulfonate of Compound A and gemcitabine were dissolved in DMSO to prepare 10 mmol/L DMSO solutions thereof. The thus-prepared DMSO solutions were diluted sequentially with DMSO to prepare DMSO solutions having a final treatment concentration of 1000-fold dilution. Cisplatin was dissolved in DMSO to prepare a 100 mmol/L DMSO solution. The thus-prepared DMSO solution of cisplatin was diluted with DMSO to prepare a DMSO solution having a final treatment concentration of 5000-fold dilution. Further, the DMSO solution of cisplatin was diluted with 10% serum-supplemented medium to prepare a cisplatin-containing medium having a final treatment concentration of 10-fold dilution. The DMSO diluted solutions of Compound A and gemcitabine were diluted with the cisplatin-containing medium to prepare treatment liquids having a final treatment concentration of 10-fold dilution. Compound A and gemcitabine were used with a maximum concentration of 10 μmol/L at a common ratio of 1/3 and 9 concentrations in combination with cisplatin (10 μmol/L, 5 μmol/L).
as §5, with “10” for “20”, “cisplatin-containing medium” for “cisplatin solution (60 μmol/L)”
as §6
as §7, with “11.” for “8.”

| SMILES | viability at 0.0015 µM [1] [%] | viability at 0.0046 µM [1] [%] | viability at 0.0137 µM [1] [%] | viability at 0.0412 µM [1] [%] | viability at 0.1235 µM [1] [%] | viability at 0.3704 µM [1] [%] | viability at 1.1111 µM [1] [%] | viability at 3.3333 µM [1] [%] | viability at 10 µM [1] [%] | IC50 [1] [µM] | CI [1] | CI [2] | viability at 0.001 µM [2] [%] | viability at 0.003 µM [2] [%] | viability at 0.01 µM [2] [%] | viability at 0.03 µM [2] [%] | viability at 0.1 µM [2] [%] | viability at 0.3 µM [2] [%] | viability at 1 µM [2] [%] | viability at 3 µM [2] [%] | further results |
| --- | --- | --- | --- | --- | --- | --- | --- | --- | --- | --- | --- | --- | --- | --- | --- | --- | --- | --- | --- | --- | --- |
| Nc1ccn([C@@H]2O[C@H](CO)[C@@H](O)C2(F)F)c(=O)n1 [Gemcitabine] | 114 | 113 | 116 | 113 | 116 | 113 | 103 | 83 | 56 | ≥ 10 | 0.90 | 0.60 | 96 | 100 | 101 | 97 | 88 | 73 | 60 | 52 | viability at 10 µM [2]: 50%; IC50 [2]: ≥ 10 µM |
| Nc1ccn([C@@H]2S[C@H](CO)[C@@H](O)[C@@H]2F)c(=O)n1 [Compound A, 1-(2-deoxy-2-fluoro-4-thio-β-D-arabinofuranosyl)cytosine] | 117 | 114 | 110 | 96 | 66 | 44 | 40 | 36 | 34 | 0.261 | 0.34 | 0.03 | 92 | 94 | 75 | 65 | 38 | 15 | 2 | 2 | viability at 10 µM [2]: 2%; IC50 [2]: 0.0494 µM |
